Assay results reported in patent publication US20220267376A1, “P53 ACTIVATOR PEPTIDOMIMETIC MACROCYCLES” (Merck Sharp & Dohme Corp., priority 2019, published 2022).
Blank lines part the entries; values can stand above or below the molecule they belong to. Positions of bridges follow the written chain, without caps; N, C: chain ends. Non-standard residues stand in square brackets, D forms with d. No end group written: not given here. dPhe(4-CF3) = N[C@H](Cc1ccc(C(F)(F)F)cc1)C(=O)O; dTrp(6-F) = N[C@H](Cc1c[nH]c2cc(F)ccc12)C(=O)O; R5 = C=CCCC[C@@](C)(N)C(=O)O

Columns and labels:
MDM4 = target: T1, MDM4 (Homo sapiens, UniProt O15151); experiment: Fluorescence polarization (FP) binding to MDM4/MDMX; settings: FP assay, MDM4 (MDMX)
T1 construct: GST; made in house
T1 sequence (O15151 1-490): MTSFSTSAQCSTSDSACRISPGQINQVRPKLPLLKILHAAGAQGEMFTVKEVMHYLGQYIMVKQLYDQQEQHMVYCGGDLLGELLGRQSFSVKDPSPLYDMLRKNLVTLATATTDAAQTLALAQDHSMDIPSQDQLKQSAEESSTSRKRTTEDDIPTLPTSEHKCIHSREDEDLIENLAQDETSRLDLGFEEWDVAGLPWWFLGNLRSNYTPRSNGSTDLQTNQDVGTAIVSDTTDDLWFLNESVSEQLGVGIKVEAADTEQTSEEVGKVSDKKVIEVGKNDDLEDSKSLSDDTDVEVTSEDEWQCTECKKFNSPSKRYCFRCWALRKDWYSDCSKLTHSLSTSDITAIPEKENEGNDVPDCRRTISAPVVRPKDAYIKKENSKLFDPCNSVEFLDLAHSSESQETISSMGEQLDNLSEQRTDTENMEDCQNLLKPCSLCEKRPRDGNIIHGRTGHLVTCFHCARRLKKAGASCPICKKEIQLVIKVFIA

HCT116 cells = experiment: Lactate dehydrogenase (LDH) release assay; type: cell-based; settings: up to 50 μM
Protocol: The cells were incubated overnight followed by removal of cell media and addition of Opti-MEM Medium without FBS. Cells were then treated with peptides for 4/16 hours in Opti-MEM either in 10% FBS or serum free. Final concentration of DMSO was 0.5%. […] Measurements were carried out using Tecan plate reader.

HCT-116 cells = experiment: HCT-116 western blot analysis (p53, MDM2, p21); type: cell-based; settings: 6.123, 12.5 and 25 μM, 4 or 24 hours
Protocol: Preparation of compound Stock and working Solutions: 10 mM or 1 mM stock solutions of compounds were prepared in 100% DMSO. Each compound was then serially diluted in 100% DMSO and further diluted 10-fold into HPLC grade sterile water to prepare 10× working solutions in 10% DMSO/water of each compound. Depending on the required volume used in the relevant assay, compounds were added to yield final concentrations as indicated in the relevant figure with a residual DMSO concentration of 1% v/v.
HCT116 cells (Thermo Fisher Scientific) were cultured in DMEM cell media, which was supplemented with 10% foetal calf serum (FBS) and penicillin/streptomycin. All cell lines were maintained in a 37° C. humidified incubator with 5% CO2 atmosphere. HCT116 cells were seeded into 96 well plates at a cell density of 60,000 cells per well and incubated overnight. Cells were also maintained in DMEM cell media with 10% fetal bovine serum (FBS) and penicillin/streptomycin. Cell media was then removed and replaced with cell media containing the various compounds/vehicle controls at the concentrations indicated in DMEM cell media with 2% FCS, After the stated incubation time (4 or 24 hours) cells were rinsed with PBS and then harvested in 100 μl of × NuPAGE LDS sample buffer supplied by Invitrogen (NP0008). […] Protein concentrations were measured by BCA assay (Pierce). […]

[1] = tested on: Jump-In™ T-REx™ CHO-K1 BLA cells; experiment: Tetracycline beta-lactamase reporter gene assay (counterscreen); type: cell-based; settings: for EC50: read-out: Counterscreen EC50 (μM) (2% FBS) 16 H, 2% FBS, 16 H
Protocol: Cells were seeded into a 384-well plate a density of 4000 cells per well. […] Measurements were carried out using Envision multiplate reader (Perkin-Elmer).

[2] = tested on: HCT116 p53 reporter cells; experiment: p53 beta-lactamase reporter gene assay; type: cell-based; settings: read-out: P53 activity EC50 (μM) (2% FBS) 16 H; HCT116 p53 reporter, 2% FBS, 16 H
Protocol: The cells were incubated overnight and followed by removal of cell growth media and replaced with Opti-MEM either containing 0% FBS or 10% FBS. […] Measurements were done using Envision multiplate reader (Perkin-Elmer).

[3] = Circular dichroism (CD) helicity of peptide in solution; type: physicochemical; settings: 25° C.
Protocol: Prior to the experiment, 5 μl of the 10 mM stock peptide was mixed with 45 μl of 100% methanol, and dried for 2 hours in the SpeedVac concentrator (Thermo Scientific). The dried peptide was reconstituted in buffer, containing 1 mM HEPES pH 7.4 and 5% methanol, to a concentration of 1 mM. The peptide sample was placed in a quartz cuvette with a path length of 0.2 cm and the CD spectrum was recorded from 300 to 190 nm at 25° C., using the Chirascan-plus qCD machine (Applied Photophysics). […] An estimate of the secondary stmcture components of the peptide was carried out by converting the CD spectrum to mean residue ellipticity, before deconvoluting using the CDNN software (distributed by Applied Photophysics). All experiments were done in duplicates.

MDM2 = target: T2, MDM2 (Homo sapiens, UniProt Q00987); experiment: Surface plasmon resonance (SPR) binding to MDM2; settings: MDM2
T2 construct: GST (N); His6 (N); made in house; host or cells: E. coli BL21 (DE3) Rosetta T1R
T2 sequence (Q00987 1-125): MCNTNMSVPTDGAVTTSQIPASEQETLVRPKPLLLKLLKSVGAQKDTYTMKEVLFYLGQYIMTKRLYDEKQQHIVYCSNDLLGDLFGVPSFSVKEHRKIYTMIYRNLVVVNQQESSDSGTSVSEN
Protocol: SPR experiments were performed with Biacore T100 (GE Healthcare) at 25° C. […] SPR buffer consisted of PBS pH 7.2, 1 mM DTT, 0.01% Tween 20, and 3% DMSO. The CMS chip was first conditioned with 100 mM HCl, followed by 0.1% SIDS, 50 mM NaOH and then water, all performed twice with 6 second injection at a flow rate of 100 μL/min. With the flow rate set to 10 μL/minutes, streptavidin (S4762. Sigma-Aldrich) was immobilized on the conditioned chip through amine coupling as described in the Biacore manual. Excess protein was removed by 30 second injection of the wash solution (50 mM NaOH+1M NaCl) for at least 8 times. The immobilized levels are 3400-3700 RU. The biotinylated MDM2 were captured to the streptavidin, to a level of ˜400 RU for MDM2. Flow cell consisted of only streptavidin was used as the reference surface. Using a flow rate of 30 μL/minutes, peptides dissolved in the SPR buffer are injected for 180 sec. The dissociation was monitored for 300 seconds. […] For single-cycle kinetics, five peptide concentrations were injected consecutively for 180 seconds, followed by a 4000 second dissociation. Similar injection of SPR buffer was followed to allow the surface to be regenerated, though not completely. After the run, responses from the target protein surface are transformed by (i) correcting with DMSO calibration curve, (ii) subtracting the responses obtained from the reference surface, and (iii) subtracting the responses of buffer injections from those of peptide injections. The last step is known as double referencing which corrects the systematic artefacts. The resulting responses were subjected to kinetic analysis by global fitting with 1:1 binding model.

MDM4 protein (human) [4] = target: MDM4 protein (human) (UniProt O15151); experiment: fluorescence polarization, MDM4
[5] = target: T3, human MDM2 protein (amino acids 1-125) (Homo sapiens, UniProt Q00987); experiment: fluorescence polarization, MDM2
T3 sequence (Q00987 1-125 limits assumed): as the sequence (Q00987 1-125) above

MDM4 protein (human) [6] = target: MDM4 protein (human) (UniProt O15151); experiment: fluorescence polarization assay on MDM4 (anisotropy falls with the peptide concentration; the labeled tracer used with MDM4 is not given)
[7] = target: T3, human MDM2 protein (amino acids 1-125); experiment: SPR, biotinylated MDM2 on streptavidin, peptide as analyte
[8] = target: T3, human MDM2 protein (amino acids 1-125); experiment: fluorescence anisotropy competition: unlabeled peptide titrated against the complex of MDM2 (250 nM) and FAM-labeled 12/1 peptide (50 nM)
[9] = target: T3, human MDM2 protein (amino acids 1-125); experiment: cell-based or functional assay
[10] = target: T3, human MDM2 protein (amino acids 1-125); experiment: fluorescence polarization competition, FAM-12/1 tracer, MDM2; FP assay: no binding, Kd capped at 10000 nM

Kd (MDM4): 12.5 nM
LDH leakage (HCT116 cells): No detectable LDH leakage
EC50 [2]: 4 µM
CD (% helicity) [3]: 52.1%
CD (% helicity) ([3]; listed as DPMI-δ(1,5,12)): 52%
CD (% helicity) ([3]; listed as stitched peptide): 52%
Kd (MDM2; Table 1): < 1 nM
Kd (MDM2; Table 2): < 1 nM
Molecule: CC(C)C[C@H]1NC(=O)[C@@H](CCCCN)NC(=O)[C@@H](CCC(=O)O)NC(=O)[C@@H](Cc2ccc(C(F)(F)F)cc2)NC(=O)[C@@H](CC(N)=O)NC(=O)[C@]2(CCC/C=C\CCCCCC[C@](C)(C(N)=O)NC(=O)[C@@H](CC(C)C)NC1=O)CCC/C=C\CCC[C@@](C)(N)C(=O)N[C@H](C)C(=O)N[C@H](Cc1c[nH]c3cc(F)ccc13)C(=O)N[C@H](Cc1ccc(O)cc1)C(=O)N2 [^DPMI-δ (1-5-12)]
Western blot: stabilization of MDM2 and activation of p53 (HCT-116 cells): Stabilization of MDM2 and activation of p53
counterscreen activity [1]: negligible counter screen activity
EC50 [1]: ≥ 50 µM

Kd (MDM4 protein (human) [4]): 4.5 nM
Kd [5]: 2 nM
IC50 (read off the curve) (MDM4 protein (human) [6]): 1000 nM
Kd [7]: < 1 nM
IC50 (read off the curve) [8]: 500 nM
Molecule: ATSP-7041 (peptide)

EC50 [2]: 1.8 µM
Molecule: CC(=O)N[C@@H](CC(C)C)C(=O)N[C@H](C(=O)N[C@@H](Cc1ccccc1)C(=O)N[C@]1(C)CCCCCCC=CCCC[C@@](C)(C(=O)N[C@@H](CO)C(=O)N[C@@H](C)C(=O)N[C@@H](C)C(N)=O)NC(=O)[C@H](CC2CCC2)NC(=O)[C@H](CCC(N)=O)NC(=O)[C@H](C)NC(=O)[C@H](Cc2c[nH]c3ccccc23)NC(=O)[C@H](Cc2ccc(O)cc2)NC(=O)[C@H](CCC(=O)O)NC1=O)[C@@H](C)O [ATSP-7041, reference compound]
Western blot: stabilization of MDM2 and activation of p53 (HCT-116 cells): Stabilization of MDM2 and activation of p53
EC50 [1]: ≥ 50 µM

P53 activity EC50 (µM) (2% FBS) 16 H [9]: > 50 µM
Kd [10]: > 10000 nM
B1: ^DPMI-δ(5-9) (peptide)
peptide: [dT][dA][dTrp(6-F)][dY][R5][dN][dPhe(4-CF3)][dE][R5][dL][dL][dR]-NH2
modifications: staple 5-9
